# Measured values published in the supplement of paper PMC10307832.
# What was measured:
# Experiment in all cases: relative viability (nuclei count vs DMSO), 5 days (fraction); higher = more cells survive
# NCI-H1437 = tested on: NCI-H1437
# How it was run: (§1)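 Each reported value is a median over duplicate plates. It expresses relative viability: treated-well nuclei count divided by vehicle-well nuclei count. Lung cancer cell lines in 1536-well plates were dosed by pin tool a day after seeding, alone with one drug or with a fixed anchor-drug dose plus five library-drug doses (not always all listed) in √10 steps, and nuclei were counted after 5 days.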
# NCI-H1299 = tested on: NCI-H1299
# How it was run: as §1
# SW 1573 = tested on: SW 1573
# How it was run: as §1
# A549 = tested on: A549
# How it was run: as §1
# IA-LM = tested on: IA-LM
# How it was run: as §1
# Calu-6 = tested on: Calu-6
# How it was run: as §1
# ABC-1 = tested on: ABC-1
# How it was run: as §1
# NCI-H1703 = tested on: NCI-H1703
# How it was run: as §1
# SK-MES-1 = tested on: SK-MES-1
# How it was run: as §1
# COR-L23 = tested on: COR-L23
# How it was run: as §1
# NCI-H1651 = tested on: NCI-H1651
# How it was run: as §1
# EBC-1 = tested on: EBC-1
# How it was run: as §1
compound,measurement,setting,value
CCN(CC)CCCCNc1ncc2cc(-c3cc(OC)cc(OC)c3)c(NC(=O)NC(C)(C)C)nc2n1 + C[C@]1(O)C[C@@H](c2nc(-c3ccc4ccc(-c5ccccc5)nc4c3)c3c(N)nccn32)C1 [Linsitinib] (partner 1 µM),relative viability,NCI-H1437; first compound 0.01 µM,1.27
same,relative viability,NCI-H1437; first compound 0.03162 µM,1.05
same,relative viability,NCI-H1437; first compound 0.1 µM,1.13
same,relative viability,NCI-H1437; first compound 0.3162 µM,1.22
same,relative viability,NCI-H1437; first compound 1 µM,0.817
same,relative viability,NCI-H1299; first compound 0.01 µM,1.01
same,relative viability,NCI-H1299; first compound 0.03162 µM,1.01
same,relative viability,NCI-H1299; first compound 0.1 µM,0.986
same,relative viability,NCI-H1299; first compound 0.3162 µM,1.09
same,relative viability,NCI-H1299; first compound 1 µM,0.944
same,relative viability,SW 1573; first compound 0.01 µM,0.811
same,relative viability,SW 1573; first compound 0.03162 µM,0.785
same,relative viability,SW 1573; first compound 0.1 µM,0.892
same,relative viability,SW 1573; first compound 0.3162 µM,0.734
same,relative viability,SW 1573; first compound 1 µM,0.789
same,relative viability,A549; first compound 0.01 µM,0.623
same,relative viability,A549; first compound 0.03162 µM,0.626
same,relative viability,A549; first compound 0.1 µM,0.563
same,relative viability,A549; first compound 0.3162 µM,0.636
same,relative viability,A549; first compound 1 µM,0.595
same,relative viability,IA-LM; first compound 0.01 µM,0.757
same,relative viability,IA-LM; first compound 0.03162 µM,0.748
same,relative viability,IA-LM; first compound 0.1 µM,0.621
same,relative viability,IA-LM; first compound 0.3162 µM,0.78
same,relative viability,IA-LM; first compound 1 µM,0.506
same,relative viability,Calu-6; first compound 0.03162 µM,0.946
same,relative viability,Calu-6; first compound 0.1 µM,0.969
same,relative viability,Calu-6; first compound 0.3162 µM,0.898
same,relative viability,Calu-6; first compound 1 µM,1.02
same,relative viability,ABC-1; first compound 0.01 µM,0.915
same,relative viability,ABC-1; first compound 0.03162 µM,0.809
same,relative viability,ABC-1; first compound 0.1 µM,0.88
same,relative viability,ABC-1; first compound 0.3162 µM,0.838
same,relative viability,ABC-1; first compound 1 µM,0.722
same,relative viability,NCI-H1703; first compound 0.01 µM,1.02
same,relative viability,NCI-H1703; first compound 0.03162 µM,0.63
same,relative viability,NCI-H1703; first compound 0.1 µM,0.792
same,relative viability,NCI-H1703; first compound 0.3162 µM,0.959
same,relative viability,NCI-H1703; first compound 1 µM,0.967
same,relative viability,SK-MES-1; first compound 0.01 µM,1.04
same,relative viability,SK-MES-1; first compound 0.03162 µM,1.26
same,relative viability,SK-MES-1; first compound 0.1 µM,1.16
same,relative viability,SK-MES-1; first compound 0.3162 µM,1.16
same,relative viability,SK-MES-1; first compound 1 µM,1.09
same,relative viability,COR-L23; first compound 0.01 µM,1
same,relative viability,COR-L23; first compound 0.03162 µM,1.2
same,relative viability,COR-L23; first compound 0.1 µM,1.15
same,relative viability,COR-L23; first compound 0.3162 µM,1.09
same,relative viability,COR-L23; first compound 1 µM,0.948
same,relative viability,NCI-H1651; first compound 0.01 µM,1.06
same,relative viability,NCI-H1651; first compound 0.03162 µM,0.931
same,relative viability,NCI-H1651; first compound 0.1 µM,1.28
same,relative viability,NCI-H1651; first compound 0.3162 µM,1.16
same,relative viability,NCI-H1651; first compound 1 µM,0.786
same,relative viability,EBC-1; first compound 0.01 µM,0.885
same,relative viability,EBC-1; first compound 0.03162 µM,1.04
same,relative viability,EBC-1; first compound 0.1 µM,0.994
same,relative viability,EBC-1; first compound 0.3162 µM,1.06
same,relative viability,EBC-1; first compound 1 µM,0.879
O=c1cc(-c2cccc3c2Sc2ccccc2S3)oc(N2CCOCC2)c1 + C[C@]1(O)C[C@@H](c2nc(-c3ccc4ccc(-c5ccccc5)nc4c3)c3c(N)nccn32)C1 [Linsitinib] (partner 1 µM),relative viability,NCI-H1437; first compound 0.08 µM,1.12
same,relative viability,NCI-H1437; first compound 0.253 µM,1.49
same,relative viability,NCI-H1437; first compound 0.8 µM,1.15
same,relative viability,NCI-H1437; first compound 2.53 µM,0.997
same,relative viability,NCI-H1437; first compound 8 µM,1.12
same,relative viability,NCI-H1299; first compound 0.08 µM,0.987
same,relative viability,NCI-H1299; first compound 0.253 µM,1
same,relative viability,NCI-H1299; first compound 0.8 µM,1.05
same,relative viability,NCI-H1299; first compound 2.53 µM,1.03
same,relative viability,NCI-H1299; first compound 8 µM,0.984
same,relative viability,SW 1573; first compound 0.08 µM,0.855
same,relative viability,SW 1573; first compound 0.253 µM,0.819
same,relative viability,SW 1573; first compound 0.8 µM,0.685
same,relative viability,SW 1573; first compound 2.53 µM,0.809
same,relative viability,SW 1573; first compound 8 µM,0.811
same,relative viability,A549; first compound 0.08 µM,0.586
same,relative viability,A549; first compound 0.253 µM,0.863
same,relative viability,A549; first compound 0.8 µM,0.564
same,relative viability,A549; first compound 2.53 µM,0.583
same,relative viability,A549; first compound 8 µM,0.666
same,relative viability,IA-LM; first compound 0.08 µM,0.695
same,relative viability,IA-LM; first compound 0.253 µM,0.919
same,relative viability,IA-LM; first compound 0.8 µM,0.491
same,relative viability,IA-LM; first compound 2.53 µM,0.465
same,relative viability,IA-LM; first compound 8 µM,0.343
same,relative viability,Calu-6; first compound 0.08 µM,0.909
same,relative viability,Calu-6; first compound 0.253 µM,1.08
same,relative viability,Calu-6; first compound 0.8 µM,0.988
same,relative viability,Calu-6; first compound 2.53 µM,0.934
same,relative viability,Calu-6; first compound 8 µM,1.02
same,relative viability,ABC-1; first compound 0.08 µM,0.627
same,relative viability,ABC-1; first compound 0.253 µM,1.02
same,relative viability,ABC-1; first compound 0.8 µM,0.717
same,relative viability,ABC-1; first compound 2.53 µM,0.711
same,relative viability,ABC-1; first compound 8 µM,0.954
same,relative viability,NCI-H1703; first compound 0.08 µM,0.237
same,relative viability,NCI-H1703; first compound 0.253 µM,0.636
same,relative viability,NCI-H1703; first compound 0.8 µM,1.02
same,relative viability,NCI-H1703; first compound 2.53 µM,0.779
same,relative viability,NCI-H1703; first compound 8 µM,0.636
same,relative viability,SK-MES-1; first compound 0.08 µM,1.12
same,relative viability,SK-MES-1; first compound 0.253 µM,1.16
same,relative viability,SK-MES-1; first compound 0.8 µM,0.956
same,relative viability,SK-MES-1; first compound 2.53 µM,1.08
same,relative viability,SK-MES-1; first compound 8 µM,1.05
same,relative viability,COR-L23; first compound 0.08 µM,0.958
same,relative viability,COR-L23; first compound 0.253 µM,0.965
same,relative viability,COR-L23; first compound 0.8 µM,1.13
same,relative viability,COR-L23; first compound 2.53 µM,1.08
same,relative viability,COR-L23; first compound 8 µM,1.04
same,relative viability,NCI-H1651; first compound 0.08 µM,1.06
same,relative viability,NCI-H1651; first compound 0.253 µM,1.2
same,relative viability,NCI-H1651; first compound 0.8 µM,0.954
same,relative viability,NCI-H1651; first compound 2.53 µM,0.879
same,relative viability,NCI-H1651; first compound 8 µM,0.865
same,relative viability,EBC-1; first compound 0.08 µM,0.706
same,relative viability,EBC-1; first compound 0.253 µM,1.14
same,relative viability,EBC-1; first compound 0.8 µM,0.828
same,relative viability,EBC-1; first compound 2.53 µM,0.871
same,relative viability,EBC-1; first compound 8 µM,0.91
